Measurements taken from ChEMBL document CHEMBL3243921, “2-Pyrrolidinylideneureas, a new class of central nervous system agents” (J Med Chem, 1978).
Activity calls are given as the source filed them.

Tested on: Mus musculus
Test: Sedative-hypnotic activity in po dosed mouse assessed as increase in pentylenetetrazol-induced persistent-convulsive threshold
Format: functional, organism-based
Conditions: not given

SMILES	Activity
CCN1CCC/C1=N\C(=O)Nc1cccc(Cl)c1	Active
CN1CCC/C1=N\C(=O)Nc1ccccc1C(F)(F)F	Active
O=C(/N=C1\CCCN1Cc1ccccc1)Nc1cccc(Cl)c1	inactive
CN1CC(c2ccccc2)C/C1=N\C(=O)Nc1ccccc1 (centres undefined)	inactive
Cc1cccc(C)c1NC(=O)/N=C1\C(C)C(c2ccccc2)CN1C (centres undefined)	inactive
CN1CCCCC/C1=N\C(=O)Nc1cccc(Cl)c1	inactive
Cc1cccc(C)c1NC(=O)/N=C1\CCC(C)N1C (centres undefined)	inactive
CN1CC(c2ccccc2)C/C1=N\C(=O)Nc1cccc(Cl)c1 (centres undefined)	inactive
CC1/C(=N\C(=O)Nc2cccc(Cl)c2)N(C)CC1c1ccccc1 (centres undefined)	inactive
O=C(/N=C1\CCCN1Cc1ccccc1)Nc1cccc(C(F)(F)F)c1	inactive
CN1CCCC/C1=N\C(=O)Nc1ccc(C(F)(F)F)cc1	inactive

Tested on: Mus musculus
Test: Potency index, ratio of methocarbamol MED20 to compound MED20 for anticonvulsant activity in po dosed mouse assessed as blockade of supramaximal electroshock-induced […] seizure
Format: functional
Conditions: not given

SMILES	Ratio
CCc1cccc(C)c1NC(=O)/N=C1\CCCN1C	3

Tested on: Mus musculus
Test: Potency index, ratio of chlorzoxazone MED20 to compound MED20 for anticonvulsant activity in po dosed mouse assessed as blockade of supramaximal electroshock-induced […] seizure
Format: functional
Conditions: not given

SMILES	Ratio
CCc1cccc(C)c1NC(=O)/N=C1\CCCN1C	3

Tested on: Mus musculus
Test: Sedative activity in mouse assessed as increase in pentylenetetrazol-induced pseudo-convulsive threshold at 25 to 200 mg/kg, po
Format: functional, organism-based
Conditions: not given

SMILES	Activity
COc1cccc(NC(=O)/N=C2\CCCN2C)c1	Active

Tested on: Mus musculus
Test: Sedative activity in mouse assessed as increase in pentylenetetrazol-induced pseudo-convulsive threshold up to 200 mg/kg, po
Format: functional, organism-based
Parameters: dose 200 mg/kg
Conditions: not given

SMILES	Activity
CCc1cccc(C)c1NC(=O)/N=C1\CCCN1C	inactive

Tested on: Mus musculus
Test: Hypnotic activity in po dosed mouse assessed as increase in pentylenetetrazol-induced persistent-convulsive threshold
Format: functional, organism-based
Conditions: not given

SMILES	Activity
CN1CCC/C1=N\C(=O)Nc1ccccc1C(F)(F)F	Active
O=C(/N=C1\CCCN1Cc1ccccc1)Nc1cccc(Cl)c1	inactive
CN1CC(c2ccccc2)C/C1=N\C(=O)Nc1ccccc1 (centres undefined)	inactive
Cc1cccc(C)c1NC(=O)/N=C1\C(C)C(c2ccccc2)CN1C (centres undefined)	inactive
CN1CCCCC/C1=N\C(=O)Nc1cccc(Cl)c1	inactive
Cc1cccc(C)c1NC(=O)/N=C1\CCC(C)N1C (centres undefined)	inactive
CN1CC(c2ccccc2)C/C1=N\C(=O)Nc1cccc(Cl)c1 (centres undefined)	inactive
CC1/C(=N\C(=O)Nc2cccc(Cl)c2)N(C)CC1c1ccccc1 (centres undefined)	inactive
O=C(/N=C1\CCCN1Cc1ccccc1)Nc1cccc(C(F)(F)F)c1	inactive
CN1CCCC/C1=N\C(=O)Nc1ccc(C(F)(F)F)cc1	inactive

Tested on: Mus musculus
Test: Potency index, ratio of chlorzoxazone MED20 to compound MED20 for muscle relaxant activity in po dosed mouse assessed as blockade of pentylenetetrazol-induced tonic extensor seizure
Format: functional
Conditions: not given

SMILES	Ratio
CCc1cccc(C)c1NC(=O)/N=C1\CCCN1C	4

Tested on: Mus musculus
Test: Acute toxicity in po dosed mouse assessed as concentration required to produce 50% loss of righting reflex administered as qd for 4 days measured for 1 min post last dose
Format: organism-based
Conditions: in vivo

SMILES	PD50
COc1cccc(NC(=O)/N=C2\CCCN2C)c1	1390 mg/kg
CCN1CCC/C1=N\C(=O)Nc1cccc(Cl)c1	1307 mg/kg

Tested on: Rattus norvegicus
Test: Antianxiety activity in ip dosed rat assessed as effect on increase in punished responses administered qd for 5 days measured every day for 5 days
Format: functional
Conditions: not given

SMILES	Activity
CN1CCC/C1=N\C(=O)Nc1ccccc1C(F)(F)F	Active
O=C(/N=C1\CCCN1Cc1ccccc1)Nc1cccc(Cl)c1	inactive
CN1CC(c2ccccc2)C/C1=N\C(=O)Nc1ccccc1 (centres undefined)	inactive
Cc1cccc(C)c1NC(=O)/N=C1\C(C)C(c2ccccc2)CN1C (centres undefined)	inactive
CN1CCCCC/C1=N\C(=O)Nc1cccc(Cl)c1	inactive
Cc1cccc(C)c1NC(=O)/N=C1\CCC(C)N1C (centres undefined)	inactive
CN1CC(c2ccccc2)C/C1=N\C(=O)Nc1cccc(Cl)c1 (centres undefined)	inactive
CC1/C(=N\C(=O)Nc2cccc(Cl)c2)N(C)CC1c1ccccc1 (centres undefined)	inactive
O=C(/N=C1\CCCN1Cc1ccccc1)Nc1cccc(C(F)(F)F)c1	inactive
CN1CCCC/C1=N\C(=O)Nc1ccc(C(F)(F)F)cc1	inactive

Same assay, conditions: 120 h, read-out: MED

SMILES	minimal effective dose
COc1cccc(NC(=O)/N=C2\CCCN2C)c1	> 25 mg/kg
CCN1CCC/C1=N\C(=O)Nc1cccc(Cl)c1	15 mg/kg

Tested on: Mus musculus
Test: Sedative-hypnotic activity in mouse assessed as increase in pentylenetetrazol-induced pseudo/persistent-convulsive threshold at 50 to 200 mg/kg, po
Format: functional, organism-based
Conditions: not given

SMILES	Activity
CCN1CCC/C1=N\C(=O)Nc1cccc(Cl)c1	Active

Tested on: Mus musculus
Test: Hypnotic activity in mouse assessed as increase in pentylenetetrazol-induced persistent-convulsive threshold up to 200 mg/kg, po
Format: functional, organism-based
Parameters: dose 200 mg/kg
Conditions: not given

SMILES	Activity
CCc1cccc(C)c1NC(=O)/N=C1\CCCN1C	inactive

Tested on: Mus musculus
Test: Muscle relaxant activity in po dosed mouse assessed as increase in strychnine-induced persistant convulsive threshold
Format: functional
Conditions: not given

SMILES	MED25	Activity
COc1cccc(NC(=O)/N=C2\CCCN2C)c1	135 mg/kg	–
CCc1cccc(C)c1NC(=O)/N=C1\CCCN1C	96 mg/kg	–
CCN1CCC/C1=N\C(=O)Nc1cccc(Cl)c1	137 mg/kg	–
CN1CCC/C1=N\C(=O)Nc1ccccc1C(F)(F)F	–	Active
O=C(/N=C1\CCCN1Cc1ccccc1)Nc1cccc(Cl)c1	–	inactive
CN1CC(c2ccccc2)C/C1=N\C(=O)Nc1ccccc1 (centres undefined)	–	inactive
Cc1cccc(C)c1NC(=O)/N=C1\C(C)C(c2ccccc2)CN1C (centres undefined)	–	inactive
CN1CCCCC/C1=N\C(=O)Nc1cccc(Cl)c1	–	inactive
Cc1cccc(C)c1NC(=O)/N=C1\CCC(C)N1C (centres undefined)	–	inactive
CN1CC(c2ccccc2)C/C1=N\C(=O)Nc1cccc(Cl)c1 (centres undefined)	–	inactive
CC1/C(=N\C(=O)Nc2cccc(Cl)c2)N(C)CC1c1ccccc1 (centres undefined)	–	inactive
O=C(/N=C1\CCCN1Cc1ccccc1)Nc1cccc(C(F)(F)F)c1	–	inactive
CN1CCCC/C1=N\C(=O)Nc1ccc(C(F)(F)F)cc1	–	inactive

Tested on: not listed separately
Test: Ratio of LD50 for po dosed mouse to PD50 for acute toxicity in po dosed mouse assessed as concentration required to produce 50% loss of righting reflex
Format: organism-based
Conditions: in vivo

SMILES	selectivity ratio
COc1cccc(NC(=O)/N=C2\CCCN2C)c1	1.5
CCN1CCC/C1=N\C(=O)Nc1cccc(Cl)c1	1.2

Tested on: not listed separately
Test: Therapeutic index, ratio of PD50 for acute toxicity in po dosed mouse assessed as concentration required to produce 50% loss of righting reflex to MED causing antianxiety activity in ip dosed rat assessed as effect on increase in punished responses
Format: organism-based
Conditions: in vivo, other: oral (PD50, mouse) and intraperitoneal (MED, rat), read-out: TI

SMILES	selectivity ratio
CCN1CCC/C1=N\C(=O)Nc1cccc(Cl)c1	58

Tested on: Mus musculus
Test: Muscle relaxant activity in po dosed mouse assessed as blockade of pentylenetetrazol-induced tonic extensor seizure
Format: functional
Conditions: not given

SMILES	MED20	Activity
COc1cccc(NC(=O)/N=C2\CCCN2C)c1	68 mg/kg	–
CCc1cccc(C)c1NC(=O)/N=C1\CCCN1C	20 mg/kg	–
CCN1CCC/C1=N\C(=O)Nc1cccc(Cl)c1	60 mg/kg	–
CN1CCC/C1=N\C(=O)Nc1ccccc1C(F)(F)F	–	Active
O=C(/N=C1\CCCN1Cc1ccccc1)Nc1cccc(Cl)c1	–	inactive
CN1CC(c2ccccc2)C/C1=N\C(=O)Nc1ccccc1 (centres undefined)	–	inactive
Cc1cccc(C)c1NC(=O)/N=C1\C(C)C(c2ccccc2)CN1C (centres undefined)	–	inactive
CN1CCCCC/C1=N\C(=O)Nc1cccc(Cl)c1	–	inactive
Cc1cccc(C)c1NC(=O)/N=C1\CCC(C)N1C (centres undefined)	–	inactive
CN1CC(c2ccccc2)C/C1=N\C(=O)Nc1cccc(Cl)c1 (centres undefined)	–	inactive
CC1/C(=N\C(=O)Nc2cccc(Cl)c2)N(C)CC1c1ccccc1 (centres undefined)	–	inactive
O=C(/N=C1\CCCN1Cc1ccccc1)Nc1cccc(C(F)(F)F)c1	–	inactive
CN1CCCC/C1=N\C(=O)Nc1ccc(C(F)(F)F)cc1	–	inactive

Tested on: Mus musculus
Test: Anticonvulsant activity in po dosed mouse assessed as blockade of supramaximal electroshock-induced […] seizure
Format: functional
Conditions: not given

SMILES	MED20	Activity
COc1cccc(NC(=O)/N=C2\CCCN2C)c1	135 mg/kg	–
CCc1cccc(C)c1NC(=O)/N=C1\CCCN1C	36 mg/kg	–
CCN1CCC/C1=N\C(=O)Nc1cccc(Cl)c1	200 mg/kg	–
CN1CCC/C1=N\C(=O)Nc1ccccc1C(F)(F)F	–	Active
O=C(/N=C1\CCCN1Cc1ccccc1)Nc1cccc(Cl)c1	–	inactive
CN1CC(c2ccccc2)C/C1=N\C(=O)Nc1ccccc1 (centres undefined)	–	inactive
Cc1cccc(C)c1NC(=O)/N=C1\C(C)C(c2ccccc2)CN1C (centres undefined)	–	inactive
CN1CCCCC/C1=N\C(=O)Nc1cccc(Cl)c1	–	inactive
Cc1cccc(C)c1NC(=O)/N=C1\CCC(C)N1C (centres undefined)	–	inactive
CN1CC(c2ccccc2)C/C1=N\C(=O)Nc1cccc(Cl)c1 (centres undefined)	–	inactive
CC1/C(=N\C(=O)Nc2cccc(Cl)c2)N(C)CC1c1ccccc1 (centres undefined)	–	inactive
O=C(/N=C1\CCCN1Cc1ccccc1)Nc1cccc(C(F)(F)F)c1	–	inactive
CN1CCCC/C1=N\C(=O)Nc1ccc(C(F)(F)F)cc1	–	inactive

Tested on: not listed separately
Test: Acute toxicity in po dosed mouse assessed as mortality administered as qd for 6 days measured on day 7 post last dose
Format: organism-based
Conditions: in vivo

SMILES	LD50 at 144 h
COc1cccc(NC(=O)/N=C2\CCCN2C)c1	1200 mg/kg
CCc1cccc(C)c1NC(=O)/N=C1\CCCN1C	650 mg/kg
CCN1CCC/C1=N\C(=O)Nc1cccc(Cl)c1	1700 mg/kg

Tested on: Mus musculus
Test: Blockade of pentylenetetrazol-induced lethality in mouse assessed as delay in occurrence of death time up to 200 mg/kg, po
Format: functional
Conditions: not given

SMILES	Time
CCc1cccc(C)c1NC(=O)/N=C1\CCCN1C	1 min

Tested on: Mus musculus
Test: Potency index, ratio of methocarbamol MED20 to compound MED20 for muscle relaxant activity in po dosed mouse assessed as blockade of pentylenetetrazol-induced tonic extensor seizure
Format: functional
Conditions: not given

SMILES	Ratio
CCc1cccc(C)c1NC(=O)/N=C1\CCCN1C	4
